# Patent US20220235032A1 (GENFLEET THERAPEUTICS (SHANGHAI) INC., priority 2019, published 2022)
# pIC50: −log10 of the molar value.
# What was measured:
# [1] = biological target: T1, RIPK1 enzyme (Homo sapiens, UniProt Q13546); assay: Inhibitory activity of the compounds against RIPK1 enzyme (P33-ATP, MBP substrate); type: biochemical; details: 36 nM RIPK1, substrate MBP, 10 mM magnesium ion, P33-labeled ATP, 2 h room temperature; read-out: RIPK1 enzyme inhibitory activety IC50
# T1 construct: purchased Eurofins 16-022
# T1 sequence (Q13546 1-671): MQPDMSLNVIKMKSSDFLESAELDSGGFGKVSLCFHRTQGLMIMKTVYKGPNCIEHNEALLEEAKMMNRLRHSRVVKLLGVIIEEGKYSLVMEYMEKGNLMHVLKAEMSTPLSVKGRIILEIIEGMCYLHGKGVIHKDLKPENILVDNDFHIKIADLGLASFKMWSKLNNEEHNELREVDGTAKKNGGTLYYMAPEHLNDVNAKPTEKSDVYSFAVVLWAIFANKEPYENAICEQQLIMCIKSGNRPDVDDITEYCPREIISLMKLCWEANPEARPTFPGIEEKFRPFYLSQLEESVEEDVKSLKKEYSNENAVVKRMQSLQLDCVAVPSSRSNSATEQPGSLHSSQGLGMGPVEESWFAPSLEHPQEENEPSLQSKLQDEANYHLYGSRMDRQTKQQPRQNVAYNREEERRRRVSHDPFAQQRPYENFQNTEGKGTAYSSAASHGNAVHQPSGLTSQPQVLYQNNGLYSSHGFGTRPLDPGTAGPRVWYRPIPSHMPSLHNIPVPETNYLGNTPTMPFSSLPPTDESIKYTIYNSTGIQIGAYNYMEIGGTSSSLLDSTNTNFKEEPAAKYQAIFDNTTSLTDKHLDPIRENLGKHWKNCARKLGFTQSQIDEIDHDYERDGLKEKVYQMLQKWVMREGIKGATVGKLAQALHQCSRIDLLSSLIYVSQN
# Method: The compound to be tested was dissolved in DMSO, and diluted in 3.16 folds with DMSO to a series of gradient concentrations. Then, the solution was diluted with MOPS buffer pH 7.0 to the final concentration. The resultant working solution was mixed with 36 nM RIPK1 (final concentration) and the substrate MBP homogeneously. Thereafter, 10 mM magnesium ion and P^33 isotopically labeled ATP were added for the reaction. After the reaction was carried out at room temperature for 2 h, phosphoric acid was added to terminate the reaction. The final reaction system was tested using a liquid scintillation counter after treatment. The […] for the tested result and a positive control group were converted to activity percentage. The activity percentage was plotted against the final concentration of respective compound using a 4-parameter fitting to obtain the inhibitory IC50 of the compound against RIPK1 enzyme.
# [2] = test system: U937 cells; assay: Inhibitory activity against programmed necroptosis of U937 cells induced by TNF-α and Q-VD-Oph (CellTiter-Glo); type: cell-based; details: Celltiter-Glo survival rate
# Method: The U937 cell strain which was used in the following Testing Examples was derived from ATCC, No.: CRL-1593.2, batch No.: 63479999, culture medium: RPMI-1640+10% FBS.
# The compound to be tested was dissolved in DMSO, and diluted with DMSO to a series of gradient concentrations. The U937 cells were inoculated in a 384-well plate at 5000/well. The compound at respective concentration was added to each of the wells, and was mixed with the cells homogeneously. Human TNF-α and Q-VD-Oph were added simultaneously to induce programmed necroptosis of the cells. The cells were placed in the incubator at 37° C. and 5% CO2 for further culture of 48 h. Celltiter-Glo reagent was used for detection. After adequate pyrolysis reaction, the chemiluminescence readout value was recorded by a microplate reader. The survival rate was calculated from the detection results using the equation as follows: SR (%)=(RLU compound−RLU blank)/(RLU high control−RLU blank)×100%. The survival rate was plotted against the final concentration of respective compound using a 4-parameter fitting to calculate the inhibitory C50 of the compound against programmed necroptosis of cells induced by TNF-α.
# [3] = human TNF-α + Q-VD-Oph induced necroptosis, 48 h
SMILES,pIC50 [1],"pIC50 ([2]; Homo sapiens, U-937, 48 h)","pIC50 [2, 3]"
"N#Cc1cc(N2CC3CC(C(=O)N4N=CCC4c4ccccc4)CC3C2)ncn1 (single isomer, unassigned) [Compound Z-9-1]",7.54,6.80,–
"N#Cc1cc(N2CCC(C(=O)N3N=CCC3c3cc(F)cc(F)c3)C3(CC3)C2)ncn1 (single isomer, unassigned) [Compound Z-25-2]",7.38,9.00,–
"N#Cc1cc(N2CC[C@H](C(=O)N3N=CC[C@H]3c3cncc(F)c3)C3(CC3)C2)ncn1 (single isomer, unassigned) [Compound Z-48-d]",7.30,8.15,–
NC(=O)c1cc(N2CC3CC(C(=O)N4N=CCC4c4ccccc4)CC3C2)ncn1 (centres unmarked) [Compound Z-10],7.02,6.82,–
"N#Cc1cc(N2CC3CC(C(=O)N4N=CCC4c4cc(F)cc(F)c4)CC3C2)ncn1 (centres unmarked) [Compound Z-11, 6-(5-(5-(3,5-difluorophenyl)-4,5-dihydro-1H-pyrazole-1-carbonyl)hexahydrocyclopenta[C]pyrrol-2(1H)-yl)pyrimidine-4-carbonitrile]",7.05,6.86,–
"COc1cc(N2CC3CC(C(=O)N4N=CCC4c4ccccc4)CC3C2)ncn1 (centres unmarked) [Compound Z-12, (2-(6-methoxypyrimidin-4-yl)octahydrocyclopenta[c]pyrrol-5-yl)(5-phenyl-4,5-dihydro-1H-pyrazol-1-yl) ketone]",6.91,–,–
"COc1nccc(N2CC3CC(C(=O)N4N=CCC4c4ccccc4)CC3C2)n1 (centres unmarked) [Compound Z-13, (2-(2-methoxypyrimidin-4-yl)octahydrocyclopenta[c]pyrrol-5-yl)(5-phenyl-4,5-dihydro-1H-pyrazol-1-yl) ketone]",7.20,6.84,–
"NC(=O)c1cc(N2CC3CC(C(=O)N4N=CCC4c4cc(F)ccc4F)CC3C2)ncn1 (centres unmarked) [Compound Z-20, 6-(5-(5-(2,5-difluorophenyl)-4,5-dihydro-1H-pyrazole-1-carbonyl)hexahydrocyclopenta[c]pyrrol-2(1H)-yl)pyrimidine-4-carboxamide]",–,6.57,–
"NC(=O)c1ccnc(N2CC3CC(C(=O)N4N=CCC4c4cc(F)ccc4F)CC3C2)n1 (centres unmarked) [Compound Z-22, 2-(5-(5-(2,5-difluorophenyl)-4,5-dihydro-1H-pyrazole-1-carbonyl)hexahydrocyclopenta [c]pyrrol-2(1H)-yl)pyrimidine-4-carboxamide]",–,7.15,–
"Nc1nc(N2CC3CC(C(=O)N4N=CCC4c4cc(F)cc(F)c4)CC3C2)ncc1F (centres unmarked) [Compound Z-23, (2-(4-amino-5-fluoropyrimidin-2-yl)octahydrocyclopenta[c]pyrrol-5-yl)(5-(3,5-difluorophenyl)-4,5-dihydro-1H-pyrazol-1-yl) ketone]",–,7.28,–
"N#Cc1ccnc(N2CC3CC(C(=O)N4N=CCC4c4cc(F)ccc4F)CC3C2)n1 (centres unmarked) [Compound Z-24, 2-(5-(5-(2,5-difluorophenyl)-4,5-dihydro-1H-pyrazole-1-carbonyl)hexahydrocyclopenta[c]pyrrol-2(1H)-yl)pyrimidine-4-carbonitrile]",–,6.74,–
"Nc1nc(N2CC3CC(C(=O)N4N=CCC4c4cncc(F)c4)CC3C2)ncc1F (centres unmarked) [Compound Z-30, (2-(4-amino-5-fluoropyrimidin-2-yl)octahydrocyclopenta[c]pyrrol-5-yl)(5-(5-fluoropyridin-3-yl)-4,5-dihydro-1H-pyrazol-1-yl) ketone]",–,6.35,–
"N#Cc1ccnc(N2CC3CC(C(=O)N4N=CCC4c4cncc(F)c4)CC3C2)n1 (centres unmarked) [Compound Z-31, 2-(5-(5-(5-fluoropyridin-3-yl)-4,5-dihydro-1H-pyrazole-1-carbonyl)hexahydrocyclopenta[c]pyrrol-2(1H)-yl)pyrimidine-4-carbonitrile]",–,6.39,–
"N#Cc1ccnc(N2CC3CC(C(=O)N4N=CCC4c4cc(F)cc(F)c4)CC3C2)n1 (centres unmarked) [Compound Z-32, 2-(5-(5-(3,5-difluorophenyl)-4,5-dihydro-1H-pyrazole-1-carbonyl)hexahydrocyclopenta [c]pyrrol-2(1H)-yl)pyrimidine-4-carbonitrile]",–,7.22,–
"Cc1nnc(N2CCC(C(=O)N3N=CCC3c3cc(F)cc(F)c3)C3(CC3)C2)o1 (centres unmarked) [Compound Z-61, (5-(3,5-difluorophenyl)-4,5-dihydro-1H-pyrazol-1-yl)(5-(5-methyl-1,3,4-oxadizol-2-yl)-5-aza-spiro[2.5]octane-8-yl) ketone]",–,–,7.28
"N#Cc1cc(N2CCC(C(=O)N3N=CCC3c3cc(F)cc(F)c3)CC23CC3)ncn1 (centres unmarked) [Compound Z-62, 6-(7-(5-(3,5-difluorophenyl)-4,5-dihydro-1H-pyrazole-1-carbonyl)-4-aza-spiro[2.5]oct-4-yl)pyrimidine-4-carbonitrile]",–,8.15,–
"Cc1nnc(N2CCC(C(=O)N3N=CCC3c3cc(F)cc(F)c3)C3(CC3)C2)o1 (centres unmarked) [Compound Z-63-2, (5-(3,5-difluorophenyl)-4,5-dihydro-1H-pyrazol-1-yl)(5-(5-methyl-1,3,4-oxadizol-2-yl)-5-aza-spiro[2.5]octane-8-yl) ketone]",–,–,7.68
"Cc1nnc(N2CCC(C(=O)N3N=CCC3c3cc(F)cc(F)c3)C3(CC3)C2)o1 (centres unmarked) [Compound Z-63-a, (5-(3,5-difluorophenyl)-4,5-dihydro-1H-pyrazol-1-yl)(5-(5-methyl-1,3,4-oxadizol-2-yl)-5-aza-spiro[2.5]octane-8-yl) ketone]",–,–,7.49
"NC(=O)c1cc(N2CCC(C(=O)N3N=CCC3c3cc(F)cc(F)c3)CC23CC3)ncn1 (centres unmarked) [Compound Z-64-1, 6-(7-(5-(3,5-difluorophenyl)-4,5-dihydro-1H-pyrazole-1-carbonyl)-4-aza-spiro[2.5]oct-4-yl)pyrimidine-4-carboxamide]",–,–,8.22
"N#Cc1cc(N2CCC(C(=O)N3N=CCC3c3cncc(F)c3)CC23CC3)ncn1 (centres unmarked) [Compound Z-65, 6-(7-(5-(5-fluoropyridin-3-yl)-4,5-dihydro-1H-pyrazole-1-carbonyl)-4-aza-spiro[2.5]oct-4-yl)pyrimidine-4-carbonitrile]",–,7.28,–
"NC(=O)c1cc(N2CCC(C(=O)N3N=CCC3c3cc(F)cc(F)c3)CC23CC3)ncn1 (centres unmarked) [Compound Z-66, 6-(7-(5-(3,5-difluorophenyl)-4,5-dihydro-1H-pyrazole-1-carbonyl)-4-aza-spiro[2.5]oct-4-yl)pyrimidine-4-carboxamide]",–,–,7.70
"NC(=O)c1cc(N2CCC(C(=O)N3N=CCC3c3cncc(F)c3)CC23CC3)ncn1 (centres unmarked) [Compound Z-67, 6-(7-(5-(5-fluoropyridin-3-yl)-4,5-dihydro-1H-pyrazole-1-carbonyl)-4-aza-spiro[2.5]oct-4-yl)pyrimidine-4-carboxamide]",–,6.94,–
"Cc1nnc(N2CCC(C(=O)N3N=CCC3c3cncc(F)c3)C3(CC3)C2)o1 (centres unmarked) [Compound Z-68, (5-(5-fluoropyridin-3-yl)-4,5-dihydro-1H-pyrazol-1-yl)(5-(5-methyl-1,3,4-oxadizol-2-yl)-5-aza-spiro[2.5]oct-8-yl) methanone]",–,–,6.44
"CNC(=O)c1cc(N2CCC(C(=O)N3N=CCC3c3cc(F)cc(F)c3)CC23CC3)ncn1 (centres unmarked) [Compound Z-70-a, 6-(7-(5-(3,5-difluorophenyl)-4,5-dihydro-11H-pyrazole-1-carbonyl)-4-aza-spiro[2.5]oct-4-yl)-N-methylpyrimidine-4-carboxamide]",–,–,7.68
"N#Cc1cc(N2CC3CC(C(=O)N4N=CCC4c4ccccc4)CC3C2)ncn1 (centres unmarked) [Compound Z-72, 6-(5-(5-phenyl-4,5-dihydro-1H-pyrazole-1-carbonyl)hexahydrocyclopenta[C]pyrrol-2(1H)-yl)pyrimidine-4-carbonitrile]",6.77,7.52,–
